In paper PMC8861095, “Neurotoxicological profile of the hallucinogenic compound 25I-NBOMe” (Scientific Reports, 2022):

What was measured:
DNA [1] = system: DNA; parameters: method as in PMID 33337517; conditions: 0.3 mg/kg; cited from earlier work
[2] = system: rat primary cortical cultures; parameters: method as in PMID 31078573; conditions: 30 μM; did not recover after 19 h of washout period; cited from earlier work
SN4741 cells = conditions: 25–400 µM; cited from earlier work
PC12 cells = conditions: 25–400 µM; cited from earlier work
SH-SY5Y cells = conditions: cited from earlier work
DNA [3] = assay: Alkaline comet assay on nuclei from frontal cortex and hippocampus; type: in vivo, rat; conditions: for Damaging effect on DNA compared with 25I-NBOMe: frontal cortex and hippocampus, LSD 0.05 mg/kg, MDMA 5 mg/kg, 25I-NBOMe 0.3 mg/kg; for DNA damage (tail moment): vs control; for Tail moment after four injections compared with the acute one: 5 mg/kg ip × 4 vs acute
Description: Animals received single or multiple (once per day for seven days) subcutaneous injections of 25I-NBOMe dissolved in 0.9% NaCl at a dose of 0.3 mg/kg/2 ml. The control group was treated with 0.9% NaCl solution in the same way. All procedures were performed 72 h after the last injection. The time point of 72 h was chosen due to the possible generation of neurotoxicity via oxidative stress caused by reactive oxygen species (ROS). Exceptionally, for initial 25I-NBOMe brain distribution studies, rats received the drug in the dose of 1 and 10 mg/kg and were sacrificed 15 min after the drug administration. The rat blood plasma and brain tissues were collected immediately after rats’ decapitation. LSD (0.05 mg/kg, ip) was given daily for 7 days in a volume of 1 ml/kg, while MDMA 5 mg/kg, ip was injected in a volume of 2 ml/kg every second day (overall 4 injections).
The alkaline comet assay was performed with the use of CometAssay® Reagent Kit for Single Cell Gel Electrophoresis Assay. At 72 h after the acute and chronic treatment with 25I-NBOMe (0.3 mg/kg, sc × 7 days), LSD (0.05 mg/kg, ip × 7 days) or MDMA (5 mg/kg, ip × 4 doses every second day) animals were sacrificed by decapitation and the frontal cortex (that consist of the sum of FC and mPFC) and hippocampus were dissected. After homogenization and several purification and centrifugation stages (as described previously in[17]), the nuclear suspension was obtained using a sucrose gradient (2.8 M/2.6 M, bottom to top). The nuclear fraction was mixed with low melting point agarose and transferred immediately onto CometSlides™. The following steps, including membrane lysis, DNA unwinding, alkaline electrophoresis, and staining (SYBR® Gold), were carried out according to Trevigen CometAssay® protocol. Stained sections were acquired and analyzed under a fluorescence microscope (Nikon Eclipse50i, Japan) equipped with a camera and NIS Elements software. The data was analyzed using OpenComet software v.1.3 (cometbio.org), a plugin of ImageJ program v.1.47 (NIH, Bethesda, MD, USA). DNA damage was presented as a tail moment. Tail moment incorporates a measure of both the smallest detectable size of migrating DNA (reflected by the comet tail length) and the number of damaged pieces (represented by the intensity of DNA in the tail).

[4] = parameters: method as in PMID 20956470; conditions: cited from earlier work

For `COc1cc(CCNCc2ccccc2OC)c(OC)cc1Br` [25B-NBOMe], the “DNA damage in the rat frontal cortex” value (DNA [1]) is given as “potent in damaging DNA” and the Neuronal activity [2] is given as “decreased neuronal activity”.
For `COc1cc(CCNCc2ccccc2OC)c(OC)cc1Cl` [25C-NBOMe], the Cell viability (SN4741 cells) is listed as “potent reduction”, the Cell viability (PC12 cells) is listed as “potent reduction” and the Cell viability (SH-SY5Y cells; 25–400 µM) is listed as “potent reduction”. The “Potency to reduce SH-SY5Y cells in respect to methamphetamine” value (SH-SY5Y cells) was 50 times.
With `CCN(CC)C(=O)[C@@H]1C=C2c3cccc4[nH]cc(c34)C[C@H]2N(C)C1` [LSD, lysergic acid diethylamide] the “Damaging effect on DNA compared with 25I-NBOMe” value (DNA [3]) was “weaker in its damaging effect on DNA than 25I-NBOMe”, the “DNA damage after chronic administration compared with a single dose” value (DNA [3]; frontal cortex, 0.05 mg/kg ip × 7 vs single, 72 h) was “significantly greater after chronic administration” and the “DNA damage (tail moment)” value (DNA [3]; frontal cortex, single and 7-day treatment 0.05 mg/kg ip, 72 h) was “caused DNA damage”. The “DNA damage after repeated injections compared with a single dose” value (DNA [3]; hippocampus, 0.05 mg/kg ip × 7 vs single, 72 h) was “higher DNA damage than the single dose” and the “DNA damage (tail moment)” value (DNA [3]; hippocampus, acute and chronic (× 7) 0.05 mg/kg ip, 72 h) was “significant increase in the tail moment value”.
With `CNC(C)Cc1ccc2c(c1)OCO2` (centres unmarked) [MDMA, 3,4-methylenedioxymethamphetamine] the “Damaging effect on DNA compared with 25I-NBOMe” value (DNA [3]) was “nearly equal to 25I-NBOMe in oxidative damage of DNA”, the “Tail moment after four injections compared with the acute one” value (DNA [3]; frontal cortex, 72 h) was “stronger increase in the tail moment value” and the “DNA damage (tail moment)” value (DNA [3]; frontal cortex, acute and chronic (4 injections every second day) 5 mg/kg ip, 72 h) was “exhibited DNA damaging properties”. The “Tail moment after four injections compared with the acute one” value (DNA [3]; hippocampus, 72 h) was “stronger increase in the tail moment value” and the “DNA damage (tail moment)” value (DNA [3]; hippocampus, acute and chronic (4 injections every second day) 5 mg/kg ip, 72 h) was “exhibited DNA damaging properties”.
In the case of `COc1cc(CCNCc2ccccc2OC)c(OC)cc1I` [^11C-CIMBI-5], the “Location in brain shortly after intravenous injection” value [4] is listed as “located in the cortex and the lower range in the cerebellum”.
